# Laboratory results reported in US20040266843A1, “Sulfonamide substituted indolinones as inhibitors of DNA dependent protein kinase (DNA-PK)” (Sugen, Inc., priority 2003, published 2004).
# Molecular target: DNA-PKcs (Homo sapiens, UniProt P78527)
# Assay: DNA-PK assay, Scintillation Proximity Assay (SPA) format
# Type: biochemical
# Conditions: room temperature, 0.23 nM DNA-PKcs, 0.3 μM ATP, 1% DMSO
# Procedure: The assay for DNA-PK was optimized to be performed in 96-well plates using a Scintillation Proximity Assay (SPA) format at room temperature. […] When inhibitors were included, they were diluted to 5× the desired concentration in 5% DMSO and diluted 1:5 in the reaction mixture bringing the final DMSO concentration to 1%. […] Activating DNA-DNA fragment consisting of 32 complementary base pairs with 5 non-complementary T's on both ends of the two strands Sequence-[NT], and of the complementary strand-[NT]. […] Peptide substrate-biotin-[…]. Dissolved in DMSO at a concentration of 5 mg/ml for the stock solution. Alternatively, fragments of the peptide substrate can be used, such as, without limitation, […]. The kinase reaction was stopped by adding […] of a solution containing 50 μM ATP, 5 mM EDTA, 0.1% Triton X-100, and 0.5 mg of streptavidin coated polyvinyltoluene SPA beads (Amersham). After a 10 min. incubation and a short spin (to pellet the beads), the plates were read on a Trilux plate reader.
# DNA-PKcs, sequence (P78527 whole entry): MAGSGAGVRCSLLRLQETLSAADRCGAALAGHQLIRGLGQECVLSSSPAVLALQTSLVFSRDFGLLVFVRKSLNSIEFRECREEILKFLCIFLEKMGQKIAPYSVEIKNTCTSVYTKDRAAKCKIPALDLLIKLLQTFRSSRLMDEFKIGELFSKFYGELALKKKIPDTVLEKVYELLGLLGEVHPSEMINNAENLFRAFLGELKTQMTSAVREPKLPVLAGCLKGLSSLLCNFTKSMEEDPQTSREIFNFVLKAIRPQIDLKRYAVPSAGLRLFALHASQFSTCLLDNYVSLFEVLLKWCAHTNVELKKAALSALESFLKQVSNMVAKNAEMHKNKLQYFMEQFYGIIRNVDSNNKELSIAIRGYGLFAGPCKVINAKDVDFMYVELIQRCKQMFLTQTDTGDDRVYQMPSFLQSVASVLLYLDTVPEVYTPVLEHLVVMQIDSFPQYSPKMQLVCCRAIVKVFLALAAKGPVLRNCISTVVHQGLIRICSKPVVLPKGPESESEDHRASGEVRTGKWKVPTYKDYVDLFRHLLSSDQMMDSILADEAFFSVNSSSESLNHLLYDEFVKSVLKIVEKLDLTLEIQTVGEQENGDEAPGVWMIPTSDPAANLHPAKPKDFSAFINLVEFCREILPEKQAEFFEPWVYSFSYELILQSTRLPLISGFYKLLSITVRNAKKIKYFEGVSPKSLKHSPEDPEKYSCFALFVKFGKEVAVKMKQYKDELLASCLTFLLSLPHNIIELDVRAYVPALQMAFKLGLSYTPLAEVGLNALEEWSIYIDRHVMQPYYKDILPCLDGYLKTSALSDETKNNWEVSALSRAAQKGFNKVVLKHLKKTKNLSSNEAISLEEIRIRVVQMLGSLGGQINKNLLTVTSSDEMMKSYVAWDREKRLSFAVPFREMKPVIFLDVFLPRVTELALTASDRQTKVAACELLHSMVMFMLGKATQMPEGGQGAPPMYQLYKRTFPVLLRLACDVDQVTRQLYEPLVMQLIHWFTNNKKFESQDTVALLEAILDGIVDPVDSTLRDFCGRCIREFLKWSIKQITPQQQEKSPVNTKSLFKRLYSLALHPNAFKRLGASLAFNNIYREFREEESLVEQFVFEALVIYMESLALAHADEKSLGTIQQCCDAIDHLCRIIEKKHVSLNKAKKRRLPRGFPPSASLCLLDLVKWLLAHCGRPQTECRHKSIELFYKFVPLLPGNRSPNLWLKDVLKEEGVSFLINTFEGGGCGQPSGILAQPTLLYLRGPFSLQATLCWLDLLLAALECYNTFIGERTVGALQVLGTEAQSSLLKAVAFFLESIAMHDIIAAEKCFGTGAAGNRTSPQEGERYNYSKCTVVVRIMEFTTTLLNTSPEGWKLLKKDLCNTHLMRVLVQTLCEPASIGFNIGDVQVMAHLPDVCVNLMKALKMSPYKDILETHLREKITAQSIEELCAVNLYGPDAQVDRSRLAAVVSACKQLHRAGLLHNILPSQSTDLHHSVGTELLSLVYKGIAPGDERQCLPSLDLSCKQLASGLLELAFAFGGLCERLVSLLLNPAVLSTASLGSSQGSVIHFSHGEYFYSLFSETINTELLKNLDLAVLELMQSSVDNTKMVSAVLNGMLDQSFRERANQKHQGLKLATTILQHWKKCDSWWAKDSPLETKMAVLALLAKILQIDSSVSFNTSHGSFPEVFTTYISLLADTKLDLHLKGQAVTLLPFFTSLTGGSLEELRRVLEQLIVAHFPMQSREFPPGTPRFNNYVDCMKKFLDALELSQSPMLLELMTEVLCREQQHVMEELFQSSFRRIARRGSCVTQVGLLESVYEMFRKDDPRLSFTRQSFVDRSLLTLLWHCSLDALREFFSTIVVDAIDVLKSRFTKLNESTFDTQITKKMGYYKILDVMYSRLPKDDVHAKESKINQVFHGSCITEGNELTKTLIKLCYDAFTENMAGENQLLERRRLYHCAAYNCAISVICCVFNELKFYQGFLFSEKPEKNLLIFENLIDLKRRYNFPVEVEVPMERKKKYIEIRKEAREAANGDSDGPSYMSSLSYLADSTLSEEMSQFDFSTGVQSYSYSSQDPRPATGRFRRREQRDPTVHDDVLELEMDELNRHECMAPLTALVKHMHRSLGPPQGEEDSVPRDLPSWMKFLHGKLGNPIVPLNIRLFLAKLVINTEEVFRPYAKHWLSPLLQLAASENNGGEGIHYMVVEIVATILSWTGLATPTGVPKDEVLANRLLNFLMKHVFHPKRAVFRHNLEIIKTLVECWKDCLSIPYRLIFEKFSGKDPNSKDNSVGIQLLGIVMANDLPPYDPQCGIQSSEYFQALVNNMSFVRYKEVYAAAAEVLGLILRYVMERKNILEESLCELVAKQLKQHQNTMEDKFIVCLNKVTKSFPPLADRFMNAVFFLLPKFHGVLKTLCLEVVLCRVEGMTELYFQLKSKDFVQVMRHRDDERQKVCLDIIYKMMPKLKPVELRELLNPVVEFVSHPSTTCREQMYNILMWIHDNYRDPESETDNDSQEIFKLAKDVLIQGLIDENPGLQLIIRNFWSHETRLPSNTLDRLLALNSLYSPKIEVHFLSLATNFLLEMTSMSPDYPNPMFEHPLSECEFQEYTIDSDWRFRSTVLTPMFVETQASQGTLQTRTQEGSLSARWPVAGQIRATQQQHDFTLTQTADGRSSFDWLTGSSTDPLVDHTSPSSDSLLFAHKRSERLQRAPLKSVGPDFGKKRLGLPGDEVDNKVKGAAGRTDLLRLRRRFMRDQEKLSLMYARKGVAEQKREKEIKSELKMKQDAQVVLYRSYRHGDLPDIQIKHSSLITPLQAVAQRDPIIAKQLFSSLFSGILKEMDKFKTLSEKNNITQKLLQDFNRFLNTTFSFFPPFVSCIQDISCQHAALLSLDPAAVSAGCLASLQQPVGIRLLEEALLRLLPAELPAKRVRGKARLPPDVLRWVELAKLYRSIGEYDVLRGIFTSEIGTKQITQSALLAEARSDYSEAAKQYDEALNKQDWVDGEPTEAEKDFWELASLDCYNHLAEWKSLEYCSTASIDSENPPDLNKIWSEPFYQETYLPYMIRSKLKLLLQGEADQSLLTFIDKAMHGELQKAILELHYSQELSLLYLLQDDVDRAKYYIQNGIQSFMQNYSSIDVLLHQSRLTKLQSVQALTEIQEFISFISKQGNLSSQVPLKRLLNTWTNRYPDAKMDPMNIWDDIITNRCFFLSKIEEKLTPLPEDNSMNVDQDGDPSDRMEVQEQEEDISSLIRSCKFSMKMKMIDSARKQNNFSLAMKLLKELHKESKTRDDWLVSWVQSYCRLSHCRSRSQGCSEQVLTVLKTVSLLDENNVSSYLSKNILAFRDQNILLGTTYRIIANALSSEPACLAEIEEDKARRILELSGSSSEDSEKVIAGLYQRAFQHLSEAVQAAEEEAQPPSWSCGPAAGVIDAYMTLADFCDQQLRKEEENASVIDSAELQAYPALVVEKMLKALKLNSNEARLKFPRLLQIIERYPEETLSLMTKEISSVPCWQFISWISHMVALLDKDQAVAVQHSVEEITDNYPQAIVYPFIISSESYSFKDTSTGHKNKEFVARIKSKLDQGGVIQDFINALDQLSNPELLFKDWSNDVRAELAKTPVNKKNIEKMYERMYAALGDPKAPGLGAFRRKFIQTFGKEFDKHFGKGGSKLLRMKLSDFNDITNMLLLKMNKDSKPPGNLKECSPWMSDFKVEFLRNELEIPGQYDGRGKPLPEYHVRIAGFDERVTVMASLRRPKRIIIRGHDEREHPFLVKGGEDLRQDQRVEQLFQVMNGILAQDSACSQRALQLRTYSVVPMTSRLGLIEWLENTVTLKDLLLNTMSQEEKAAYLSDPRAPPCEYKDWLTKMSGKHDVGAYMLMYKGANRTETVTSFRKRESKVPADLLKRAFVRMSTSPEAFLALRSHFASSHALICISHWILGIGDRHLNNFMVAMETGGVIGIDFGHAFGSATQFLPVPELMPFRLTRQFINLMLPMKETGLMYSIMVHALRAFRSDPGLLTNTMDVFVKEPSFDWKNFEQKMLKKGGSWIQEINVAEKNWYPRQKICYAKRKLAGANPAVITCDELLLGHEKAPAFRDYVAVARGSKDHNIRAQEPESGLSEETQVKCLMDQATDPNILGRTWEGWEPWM
row,IC50 [nM],Compound
1,1600,"CCc1[nH]c(/C=C2\C(=O)Nc3ccc(S(=O)(=O)Nc4ccccc4)cc32)c(CC)c1CCC(=O)O [Example 83, 3-[2,4-Diethyl-5-(2-oxo-5-phenylsulfamoyl-1,2-dihydro-indol-3-ylidenemethyl)-1H-pyrrol-3-yl]-propionic acid]"
2,34000,"CCN(CC)CCNC(=O)c1c(C)[nH]c(C=C2C(=O)Nc3ccc(Br)cc32)c1C [5-(5-bromo-2-oxo-1,2-dihydro-indol-3-ylidenemethyl)-2,4-dimethyl-1H-pyrrole-3-carboxylic acid-(2-diethylamino-ethyl)-amide]"
3,1500,"Cc1c(CCC(=O)O)c[nH]c1/C=C1\C(=O)Nc2ccc(I)cc21 [3-{5-[(Z)-(5-iodo-2-oxo-1,2-dihydro-3H-indol-3-ylidene)methyl]-4-methyl-1H-pyrrol-3-yl}propanoic acid]"
4,66000,"CNS(=O)(=O)c1ccc2c(c1)C(=Cc1[nH]c3c(c1CCCN(C)C)CCCC3)C(=O)N2 [3-{3-(3-dimethylamino-propyl)-4,5,6,7-tetrahydro-1H-indol-2-ylmethylene]-2-oxo-2,3-dihydro-1H-indole-5-sulfonic acid methylamide]"
5,1700,"2-oxo-3-[5-(2-pyrrolidin-1-yl-ethoxy-1H-indol-2-ylmethylene]-2,3-dihydro-1H-indole-sulfonic acid amide"

# Test system: not listed separately
# Assay: Storage stability of stock solution
# Type: physicochemical
# Conditions: 2 mM in DMSO, stored at −70° C., after 12 months
# Procedure: 3-[2,4-Diethyl-5-(2-oxo-5-phenylsulfamoyl-1,2-dihydro-indol-3-ylidenemethyl)-1H-pyrrol-3-yl]-propionic acid was dissolved in DMSO at 20 mg/ml and stored at −70° C. Calicheamicin μl was a generous gift from George Ellestad (Wyeth-Ayers Research). The drug was dissolved at 2 mM in DMSO (Sigma) and stored at −70° C. […] Wortmannin (Sigma) was dissolved at 1 mg/ml in DMSO and stored at −70° C. Recombinant p110 was purchased from Alexis and stored at −70° C. The glioblastoma cell line Mo59K and primary human fibroblasts was grown in Dulbecos MEM with glutamax (Invitrogen) supplemented with 10% Fetal calf serum, streptomycin and penicillin at 37° C. in a humidified cell incubator with 5% CO2. FACS analysis of cell cycle distribution after propiumiodide staining was done using standard protocols. Monolayers were irradiated on ice using a Philips RT 100 X-ray machine. An acceleration voltage of 70 kV was used.
row,Compound,loss of activity on storage
1,calicheamicin μl,no loss of activity
